Measurements from US12655173B2, “Hybrid amide derivatives of amphotericin B” (priority 2020, dated 2026).
Converted amounts (≈) assume the structure as drawn.

Legend:
[1] = In vivo tolerance in mice: survival and distress; conditions: tail vein, 24 h
[2] = test system: CEA10 (clinical isolate); assay: MIC against azole and echinocandin resistant fungal strains (CLSI); type: cell-based, A. funigatus; conditions: read-out: MIC CEA10
Experimental: (§1) This experiment was performed following the standard CLSI protocol.

[3] = test system: Af F16216, azole resistant (L98H + TR); assay: as above; type: cell-based; conditions: read-out: MIC Af F16216
Experimental: as §1

[4] = test system: EMFR-S678P, echinocandin resistant; assay: as above; type: cell-based; conditions: read-out: MIC EMFR-S678P
Experimental: as §1

[5] = test system: Af F16134, azole resistant (M220K); assay: as above; type: cell-based; conditions: read-out: MIC Af F16134
Experimental: as §1

[6] = test system: Af 3626 (ATCC strain); assay: as above; type: cell-based; conditions: read-out: MIC Af 3626
Experimental: as §1

[7] = test system: Af F7075, azole resistant (G54E); assay: as above; type: cell-based; conditions: read-out: MIC Af F7075
Experimental: as §1

[8] = In vivo toxicity in murine model: mice alive / distress-free; conditions: 45 mg/kg IV, 24 h
[9] = test system: Af F12776, azole resistant (Y431C); assay: MIC against azole and echinocandin resistant fungal strains (CLSI); type: cell-based; conditions: read-out: MIC Af F12776
Experimental: as §1

[10] = test system: Af F14946, azole resistant (G138C); assay: as above; type: cell-based; conditions: read-out: MIC Af F14946
Experimental: as §1

Compound: C[C@H](CCC(=O)O)[C@H]1CC[C@H]2[C@@H]3CC[C@@H]4C[C@H](O)CC[C@]4(C)[C@H]3C[C@H](O)[C@]12C [Deoxycholate]
- Distressed ([1]; Dose 1 mg/kg): 0/4
- Survival (alive/total) ([1]; Dose 1 mg/kg): 4/4
- Distressed ([1]; Dose 4 mg/kg): 0/4
- Survival (alive/total) ([1]; Dose 4 mg/kg): 4/4
- Distressed ([1]; Dose 45 mg/kg): 0/4
- Survival (alive/total) ([1]; Dose 45 mg/kg): 4/4

Compound: CC[C@@H]([C@H](C)O)n1ncn(-c2ccc(N3CCN(c4ccc(OC[C@@H]5CO[C@@](Cn6cncn6)(c6ccc(F)cc6F)C5)cc4)CC3)cc2)c1=O [Posaconazole]
- MIC [2]: 0.18 µM (≈ 0.126 µg/mL)
- MIC [3]: 1.43 µM (≈ 1 µg/mL)

Compound: CC[C@H](C)C[C@H](C)CCCCCCCCC(=O)N[C@H]1C[C@@H](O)[C@@H](NCCN)NC(=O)[C@@H]2[C@@H](O)CCN2C(=O)[C@H]([C@H](O)CCN)NC(=O)[C@H]([C@H](O)[C@@H](O)c2ccc(O)cc2)NC(=O)[C@@H]2C[C@@H](O)CN2C(=O)[C@H]([C@@H](C)O)NC1=O [Caspofungin]
- MIC [4]: > 3.3 µM
- MIC [5]: 0.21 µM (≈ 0.23 µg/mL)
- MIC [6]: 0.41 µM (≈ 0.448 µg/mL)
- MIC [3]: 0.41 µM (≈ 0.448 µg/mL)
- MIC [7]: 0.82 µM (≈ 0.897 µg/mL)

Compound: C[C@@H]1[C@H](O)[C@@H](C)/C=C/C=C/C=C/C=C/C=C/C=C/C=C/[C@H](O[C@@H]2O[C@H](C)[C@@H](O)[C@H](N)[C@H]2O)C[C@@H]2O[C@](O)(C[C@@H](O)C[C@@H](O)[C@H](O)CC[C@@H](O)C[C@@H](O)CC(=O)O[C@H]1C)C[C@H](O)[C@H]2C(=O)O [C2′epiAmB]
- # of mice alive [8]: 4/4
- # of mice distress-free [8]: 4/4

Compound: C[C@@H](c1ncncc1F)[C@](O)(Cn1cncn1)c1ccc(F)cc1F [Voriconazole]
- MIC [5]: > 11.5 µM
- MIC [9]: > 11.5 µM
- MIC [6]: 0.72 µM (≈ 0.252 µg/mL)
- MIC [3]: > 11.5 µM
- MIC [7]: 5.73 µM (≈ 2 µg/mL)
- MIC [10]: > 11.5 µM
